Results reported in the NIST ThermoML archive (doi:10.1016/j.jct.2005.03.012).

Experiment: excess molar enthalpy (molar enthalpy of mixing); xn = mol fraction of the nth substance listed
Settings: Liquid

CO [methanol] + O
Settings | excess molar enthalpy [kcal/mol]
355.11 K, 5000 kPa, x1 = 0.3 | -0.0957
373.15 K, 5000 kPa, x1 = 0.1 | -0.0386
373.15 K, 5000 kPa, x1 = 0.2 | -0.053
373.15 K, 5000 kPa, x1 = 0.3 | -0.0554
373.15 K, 5000 kPa, x1 = 0.4 | -0.0527
373.15 K, 5000 kPa, x1 = 0.5 | -0.0495
373.15 K, 5000 kPa, x1 = 0.6 | -0.0465
373.15 K, 5000 kPa, x1 = 0.7 | -0.0425
373.15 K, 5000 kPa, x1 = 0.8 | -0.0361
373.15 K, 5000 kPa, x1 = 0.9 | -0.0233
373.82 K, 5000 kPa, x1 = 0.9 | -0.0227
374.46 K, 5000 kPa, x1 = 0.8 | -0.0342
374.83 K, 5000 kPa, x1 = 0.7 | -0.0394
375.03 K, 5000 kPa, x1 = 0.1 | -0.0377
375.03 K, 5000 kPa, x1 = 0.2 | -0.0491
375.03 K, 5000 kPa, x1 = 0.3 | -0.0508
375.03 K, 5000 kPa, x1 = 0.4 | -0.0479
375.03 K, 5000 kPa, x1 = 0.5 | -0.045
375.03 K, 5000 kPa, x1 = 0.6 | -0.0422
375.03 K, 5000 kPa, x1 = 0.7 | -0.0388
375.03 K, 5000 kPa, x1 = 0.8 | -0.0333
375.03 K, 5000 kPa, x1 = 0.9 | -0.0214
375.05 K, 5000 kPa, x1 = 0.1 | -0.0364
375.09 K, 5000 kPa, x1 = 0.6 | -0.0424
375.26 K, 5000 kPa, x1 = 0.5 | -0.0447
375.35 K, 5000 kPa, x1 = 0.9 | -0.0212
375.45 K, 5000 kPa, x1 = 0.4 | -0.0473
375.66 K, 5000 kPa, x1 = 0.3 | -0.0498
375.68 K, 5000 kPa, x1 = 0.2 | -0.0484
376.12 K, 5000 kPa, x1 = 0.8 | -0.0318
376.69 K, 5000 kPa, x1 = 0.7 | -0.0358
376.94 K, 5000 kPa, x1 = 0.6 | -0.0382
376.98 K, 5000 kPa, x1 = 0.1 | -0.034
377.07 K, 5000 kPa, x1 = 0.5 | -0.0403
377.26 K, 5000 kPa, x1 = 0.4 | -0.0427
377.41 K, 5000 kPa, x1 = 0.3 | -0.0455
377.47 K, 5000 kPa, x1 = 0.2 | -0.0447
420.87 K, 10000 kPa, x1 = 0.4 | 0.0499
420.97 K, 2000 kPa, x1 = 0.4 | 0.0467
420.98 K, 5000 kPa, x1 = 0.4 | 0.0483
420.98 K, 5000 kPa, x1 = 0.5 | 0.051
421.12 K, 10000 kPa, x1 = 0.6 | 0.0491
421.18 K, 5000 kPa, x1 = 0.6 | 0.048
421.19 K, 2000 kPa, x1 = 0.6 | 0.0457
421.39 K, 5000 kPa, x1 = 0.3 | 0.0384
421.51 K, 5000 kPa, x1 = 0.7 | 0.0404
421.69 K, 10000 kPa, x1 = 0.2 | 0.0282
421.8 K, 2000 kPa, x1 = 0.2 | 0.0262
421.84 K, 5000 kPa, x1 = 0.2 | 0.0269
421.92 K, 10000 kPa, x1 = 0.8 | 0.0294
421.97 K, 2000 kPa, x1 = 0.8 | 0.0259
421.98 K, 5000 kPa, x1 = 0.8 | 0.0283
422.47 K, 5000 kPa, x1 = 0.9 | 0.0141
422.53 K, 5000 kPa, x1 = 0.1 | 0.0114
422.8 K, 10000 kPa, x1 = 0.4 | 0.0539
422.84 K, 5000 kPa, x1 = 0.4 | 0.0521
422.84 K, 5000 kPa, x1 = 0.5 | 0.0547
422.86 K, 2000 kPa, x1 = 0.4 | 0.05
423.02 K, 10000 kPa, x1 = 0.6 | 0.0528
423.08 K, 2000 kPa, x1 = 0.6 | 0.049
423.12 K, 5000 kPa, x1 = 0.6 | 0.0512
423.14 K, 5000 kPa, x1 = 0.7 | 0.0432
423.15 K, 2000 kPa, x1 = 0.2 | 0.0278
423.15 K, 2000 kPa, x1 = 0.4 | 0.0501
423.15 K, 2000 kPa, x1 = 0.6 | 0.0484
423.15 K, 2000 kPa, x1 = 0.8 | 0.027
423.15 K, 5000 kPa, x1 = 0.1 | 0.0118
423.15 K, 5000 kPa, x1 = 0.2 | 0.0287
423.15 K, 5000 kPa, x1 = 0.3 | 0.0414
423.15 K, 5000 kPa, x1 = 0.4 | 0.0522
423.15 K, 5000 kPa, x1 = 0.5 | 0.0549
423.15 K, 5000 kPa, x1 = 0.6 | 0.0514
423.15 K, 5000 kPa, x1 = 0.7 | 0.0421
423.15 K, 5000 kPa, x1 = 0.8 | 0.0294
423.15 K, 5000 kPa, x1 = 0.9 | 0.0143
423.15 K, 10000 kPa, x1 = 0.2 | 0.0302
423.15 K, 10000 kPa, x1 = 0.4 | 0.0538
423.15 K, 10000 kPa, x1 = 0.6 | 0.0531
423.15 K, 10000 kPa, x1 = 0.8 | 0.0302
423.37 K, 5000 kPa, x1 = 0.3 | 0.0416
423.39 K, 5000 kPa, x1 = 0.8 | 0.0299
423.49 K, 2000 kPa, x1 = 0.8 | 0.0275
423.62 K, 10000 kPa, x1 = 0.8 | 0.0305
423.64 K, 10000 kPa, x1 = 0.2 | 0.0315
423.68 K, 5000 kPa, x1 = 0.2 | 0.0299
423.69 K, 2000 kPa, x1 = 0.2 | 0.0288
423.76 K, 5000 kPa, x1 = 0.9 | 0.0151
424.45 K, 5000 kPa, x1 = 0.1 | 0.0132
424.96 K, 5000 kPa, x1 = 0.1 | 0.0136
424.96 K, 5000 kPa, x1 = 0.2 | 0.0315
424.96 K, 5000 kPa, x1 = 0.3 | 0.0442
424.96 K, 5000 kPa, x1 = 0.4 | 0.056
424.96 K, 5000 kPa, x1 = 0.5 | 0.0586
424.96 K, 5000 kPa, x1 = 0.6 | 0.0565
424.96 K, 5000 kPa, x1 = 0.7 | 0.0451
424.96 K, 5000 kPa, x1 = 0.8 | 0.0318
424.96 K, 5000 kPa, x1 = 0.9 | 0.016
425 K, 2000 kPa, x1 = 0.2 | 0.0306
425 K, 2000 kPa, x1 = 0.4 | 0.054
425 K, 2000 kPa, x1 = 0.6 | 0.0545
425 K, 2000 kPa, x1 = 0.8 | 0.0286
425.1 K, 10000 kPa, x1 = 0.2 | 0.0334
425.1 K, 10000 kPa, x1 = 0.4 | 0.0578
425.1 K, 10000 kPa, x1 = 0.6 | 0.0584
